What was measured:
[1] = tested on: Olfr544; experiment: p-CREB/CREB western blotting in Hepa1c1c-7 cells, normal and Olfr544 knockdown; assay type: cell-based, mouse
Source text: To more clearly confirm whether an AzA acts as an Olfr544 ligand, an Olfr544 knockdown cell line was constructed using a vector including shRNA, and protein expression levels of normal cells and knockdown cells were compared by performing an experiment as follows. To construct an Olfr544 knockdown cell line, particularly, an oligonucleotide (top strand [SEQ ID NO: 1]: 5′-[…]-ACAGTGAG-3′) encoding an Olfr544-targeted shRNA hairpin sequence or an oligonucleotide (top strand [SEQ ID NO: 2]: 5′-[…]-3′) encoding non-targeting scrambled shRNA hairpins were inserted into an shRNA cloning site of a pENTR/U6 vector using a BLOCK-iT U6 RNAi entry vector kit (Invitrogen). Subsequently, Hepa1c1c-7 or 3T3-L1 cells were seeded on a 6-well plate and transfected with 2.5 μg of Olfr544 shRNA or scrambled shRNA using 10 μL Lipofectamine 2000 (Invitrogen) for 48 hours, thereby constructing an Olfr544 knockdown cell line. […]
To confirm whether an Olfr544 protein was expressed, protein fractions (cell membrane protein, cytosol protein) and total proteins (whole protein extract), which were extracted by the method of Example 2-3, were quantified by a Bradford method. […] The expression level of each gene was standardized using β-actin or GAPDH expression, and the comparison of the contents of protein bands of western blots was quantified and digitized using software (Gel-Pro Analyzer 4.0). […]

[2] = tested on: Hepa1c1c-7 cells stimulated by LPS; experiment: IL-6 and TNF-α cytokine concentration (ELISA) in LPS-treated Hepa1c1c-7 cells; assay type: cell-based, mouse; conditions: 50 μM AzA pretreatment 1 hour, 100 ng/mL LPS 6 hours
Description: Hepa1c1c-7 cells were cultured in a 12-well plate for 24 hours. Subsequently, the cells were pretreated with 50 μM of AzA for 1 hour, and treated with 100 ng/mL LPS for 6 hours with the AzA present. The Hepa1c1c-7 cells were lysed in a cell lysis buffer (50 mM Tris, 1% Triton-X 100, 1 mM EDTA, proteinase inhibitor), centrifuged at 13,000 rpm and 4° C. for 20 minutes, thereby obtaining a supernatant, and then the supernatant was analyzed using a Mouse IL6 ELISA kit and a Mouse TNFα ELISA kit (Thermo Scientific, IL, USA). Tumor necrosis factor-alpha (TNF-α) and interleukin-6 (IL-6) were quantified using ELISA known to those of ordinary skill in the art.

[3] = tested on: Olfr544 KO mouse; experiment: Fatty liver inhibitory effect in high-fat diet Olfr544 KO mouse; assay type: in vivo
Description: Mice used in the example, which were an eight-week-old C57BL/6J model, were purchased from Samtako, and Olfr544 KO mice were manufactured by Macrogen based on the C57BL/6J model using a CRISPR/Cas9 system. All experiments performed in the example are compliant to a protocol approved by the Animal Experiment Ethics Committee at Korea University (Protocol No. KUIACUC-20170322-1). The mice were acclimated at 21 to 25° C. under a 50 to 60% relative humidity condition for 12 hours before being used in the experiments, and a total of 18 mice were treated with an AzA diluted with distilled water at 50 mg/kg of body weight and distilled water as a control through oral administration for 6 weeks. The mice used in the experiments were fed a high-fat diet containing 60% fat (D12492, Research Diets, Inc) to induce fatty liver, and then a body weight was measured every week. […] An oxygen consumption amount (VO2) and a carbon dioxide production amount (VCO2) were analyzed using an Oxylet Physiocage System (Panlab/Harvard apparatus, Cornella, Spain) and suiteMETABOLISM (V2.2.01, Panlab) software. A respiratory quotient (RQ) was calculated using the formula VCO2/VO2, and energy expenditure was analyzed using the formula EE=VO2×1.11×(3.815+1.232×RQ). The oxidation of a free fatty acid was calculated using the formula (1.6946×VO2)−(1.7012×VCO2). An AzA (100 mg/kg) was intraperitoneally administered, and then concentration of a glycerol, which is a body fat decomposition marker, was measured. […] To measure glucose resistance and insulin resistance, a glucose and insulin resistance test was performed under a condition, in which glucose ([…]) and insulin (0.35 unit/kg/bw) are administered to a mouse.

[4] = Olfr544 KO mouse, HFD and AzA for 6 weeks

**Q.** What does the source list for O=C(O)CCCCCCCC(=O)O [AzA, nonanedioic acid]?
**A.** increase in p-CREB/CREB ratio ([1]; Hepa1c1c-7 cells with Olfr544 knockdown by shRNA transfection): not observed; p-CREB/CREB ratio ([1]; Hepa1c1c-7 cells, AzA-treated group): significantly increased; expression level of the IL-6 protein [2]: tendency of decrease; glucose resistance (glucose resistance test) ([3]; KO mouse): not observed; insulin resistance (insulin resistance test) ([3]; KO mouse): not observed; abdominal fat (microCT) ([3]; KO mouse, AzA 50 mg/kg/day): no such effects; total fat amount (microCT) ([3]; KO mouse, AzA 50 mg/kg/day): no such effects; blood glycerol concentration (body fat decomposition marker) ([3]; KO mouse, AzA 100 mg/kg intraperitoneally): no effect; oxidation of free fatty acids (indirect calorimetric analysis) [3, 4]: these effects were not shown; respiratory quotient (indirect calorimetric analysis) [3, 4]: these effects were not shown

— patent US10786475B2, “Method for preventing, treating, or improving fatty liver by administering effective amounts of azelaic acid to a subject” (Korea University Research and Business Foundation, priority 2018, dated 2020)
